As a reminder, the logP is the decadic logarithm of the partition coefficient of the neutral form, usually between octanol and water. Low readings indicate a more hydrophilic compound, high ones a more lipophilic compound. One may read the logD as lipophilicity at a set pH, counting ionised and neutral species. High values mean a more lipophilic compound, low ones a more hydrophilic compound.

The first data set can be described thus: method code SF-HPLC, from DOI: 10.3109/14756366.2013.845817, PMID: 24156741.
Details: not given
With `C#CCn1cc(C(=O)NC(CC(=O)NC2CCCC2)c2ccccc2)c(=O)c2cc(F)c(Cl)nc21` (stereo not drawn), the logP was 5.96.

As to `C#CCn1cc(C(=O)NC(c2ccccc2)C(O)C(=O)NC2CCCC2)c(=O)c2cc(F)c(Cl)nc21` (stereo not drawn), the logP stood at 5.82.

In turn, `C#CCn1cc(C(=O)NC(CC(=O)Nc2ccccc2)c2ccccc2)c(=O)c2ccc(Cl)nc21` (stereo not drawn) returned a log partition coefficient (logP) of 5.41.

The compound `C#CCn1cc(C(=O)NC(c2ccccc2)C(O)C(=O)NC2CCCCC2)c(=O)c2ccc(Cl)nc21` (stereo not drawn) displayed a logP of 5.14.

In the case of `C#CCn1cc(C(=O)NC(c2ccccc2)C(O)C(=O)Nc2ccccn2)c(=O)c2cccnc21` (stereo not drawn), the logP was found to be 4.02.

`C#CCn1cc(C(=O)NC(c2ccccc2)C(O)C(=O)Nc2ccccn2)c(=O)c2cc(F)c(Cl)nc21` (stereo not drawn) had a logP of 5.32.

On to `C#CCn1cc(C(=O)NC(c2ccccc2)C(O)C(=O)Nc2ccccc2)c(=O)c2cccnc21` (stereo not drawn), for which the logP stood at 4.25.

The nature of a further data set: method code SF-HPLC, from DOI: 10.1016/s0021-9673(01)88640-4.
Details: not given
`N#CN=[N+]([O-])c1cc[n+]([O-])cc1` came in with a log partition coefficient (logP) of -0.41.

Consider `N#CN=[N+]([O-])c1ncccn1`, for which the log partition coefficient (logP) was -0.31.

Consider `N#CN=[N+]([O-])c1cc[n+]([O-])c2ccccc12`, for which the logP amounted to 1.12.

Turning to `N#CN=[N+]([O-])c1cccc2ccccc12`, the logP was determined as 3.17.

In the case of `N#CN=[N+]([O-])c1ccccn1`, the logP amounted to 0.53.

The compound `N#CN=[N+]([O-])c1ccnc2ccccc12` returned a logP of 2.07.

The next data set can be described thus: method code SF-HPLC, from DOI: 10.1002/ps.2780220406.
Details: not given
Turning to `CCCCc1ccc(Cn2cncn2)cc1`, the logP stood at 2.81.

With `Fc1ccc(Cn2cncn2)cc1`, the logP is 1.1.

`Clc1ccc(Cn2cncn2)cc1` had a logP of 1.84.

With `FC(F)(F)c1cccc(Cn2cncn2)c1`, the logP worked out at 1.74.

Regarding `c1ccc(Cn2cncn2)cc1`, the logP was found to be 0.92.

In turn, `COc1ccc(Cn2cncn2)cc1` yielded a logP of 1.1. This logP and that of the compound before are within 0.2 log units of each other.

Test in another data set: not given
Details: not given
Turning to `CCCOP(=O)(OCCC)Oc1ccc(SC)cc1`, the logP is 3.44.

For the compound `CCN(OC(=O)c1ccccc1)C(=O)c1c(OC)ccc(Cl)c1OC`, the logP is 3.73.

`Cc1ccc(S(=O)(=O)Oc2c(C(=O)c3ccc(Cl)cc3Cl)c(C)nn2C)cc1` registered a logP of 3.9.

As to `CCOP(=S)(OCC)SCCSCC`, the logP is 3.84.

Compound `CCOC(=O)C(SP(=S)(OC)OC)c1ccccc1` (stereo not drawn) registered a logP of 3.32.

The compound `CCCOP(=S)(OCCC)SCC(=O)N1CCCCC1C` (stereo not drawn) yielded a logP of 4.04.

Turning to `COP1(=S)OCc2ccccc2O1` (stereo not drawn), the logP came to 2.12.

Another data set can be described thus: method code SF-GLC, from DOI: 10.1016/0378-4274(82)90116-3, PMID: 7090003.
Details: not given
On to `C=C(C)C(=O)OCC(C)O` (stereo not drawn), for which the logP was found to be 0.97.

With `C=C(C)C(=O)OC(C)(C)C`, the logP is 2.54.

`C=C(C)C(=O)OCCO` displayed a logP of 0.47.

`C=CC(=O)OCCO` gave a logP of -0.21.

`C=CC(=O)OCC(C)C` displayed a logP of 2.22.

`C=C(C)C(=O)OCC(C)C` registered a logP of 2.66.

Test in the next data set: not given
Details: not given
The source holds these as a separate data set.
As to `Cc1nc(N2CCNCC2)c(C#N)cc1-c1ccccc1`, the logP came out at 3.15.

For `N#Cc1cc(-c2ccncc2)cnc1NCCN`, the logP amounted to 1.93.

In turn, `N#Cc1cc(-c2ccncc2)cnc1N1CCN(CCO)CC1` returned a lipophilicity (logP) of 2.14.

The compound `N#Cc1cc(-c2ccncc2)cnc1N1CCNCC1` displayed a logP of 2.51.

Regarding `N#Cc1cc(-c2ccncc2)cnc1NCCCN1CCOCC1`, the logP is 2.43.

`CCN(CC)CCCNc1ncc(-c2ccncc2)cc1C#N` came in with a logP of 2.56.

In the case of `Cc1nc(N2CCNCC2)c(C#N)cc1-c1ccncc1`, the logP stood at 2.96.

Another data set is described as follows: method code SF, from DOI: 10.1016/0360-3016(86)90226-9, PMID: 3744928. The conditions noted are these: pH 7.4.
`CCOCC(O)Cn1cnc([N+](=O)[O-])n1` (stereo not drawn) returned a logD of -0.07.

In turn, `O=C(Cn1cnc([N+](=O)[O-])n1)NCCCO` registered a logD of -1.24.

Consider `COC(=O)Cn1cnc([N+](=O)[O-])n1`, for which the logD was -0.38.

For the compound `O=[N+]([O-])c1ncn([C@H]2O[C@H](CO)[C@@H](O)[C@H]2O)n1`, the logD was -1.54.

`O=[N+]([O-])c1nccn1CC(O)CN1CC1` (stereo not drawn) showed a logD of -0.66.

Turning to `O=[N+]([O-])c1ncn(CC(O)CCl)n1` (stereo not drawn), the logD was 0.05.

Test in the next data set: not given
Details: not given
The source holds these as a separate data set.
With `Cc1cc[n+]([O-])cc1`, the logP is -0.88.

Compound `CC(=O)c1cc[n+]([O-])cc1` came in with a log partition coefficient (logP) of -0.93.

`[O-][n+]1ccc(Cl)cc1` showed a logP of -0.44.

`N#Cc1cc[n+]([O-])cc1` returned a logP of -0.91.

Compound `CCOc1cc[n+]([O-])cc1` yielded a logP of -0.53.

Take `[O-][n+]1cccc2ccccc21`: the logP came to 0.41.

Another data set is described as follows: method code SF-AS, from DOI: 10.1007/s001289900721, PMID: 9657823.
Details: not given
The compound `O=Cc1ccc(O)c(Br)c1` had a logP of 1.83.

The compound `O=Cc1cccc(O)c1` returned a logP of 1.29.

Compound `O=Cc1cc(Br)ccc1Br` gave a lipophilicity (logP) of 3.35.

As to `COc1cc(C=O)cc(OC)c1OC`, the logP came to 1.39.

As for `CC(C)OC(=O)COc1ccc(C=O)cc1`, the logP was 1.88.

The compound `CCOc1ccc(C=O)cc1OC` displayed a logP of 1.63.

The compound `O=Cc1cc(O)cc(Br)c1` yielded a logP of 2.5.

Test in another data set: not given
Details: not given
This is another data set of the same source.
`c1ccoc1` yielded a logP of 1.31.

For the compound `CNC(=O)c1ccccc1`, the logP was 1.05.

In turn, `c1cncnc1` displayed a logP of -0.34.

`CCOC(=O)c1ccco1` gave a logP of 1.57.

On to `Cc1c[nH]c2ccccc12`, for which the lipophilicity (logP) was 2.61.

Turning to `CCc1cnccn1`, the logP turned out to be 0.79.

Another data set in a line: method code SF, from DOI: 10.1002/jps.2600830714, PMID: 7965679.
Details: not given
`NC(=O)CNC(=O)N(CCCl)N=O` returned a logP of -0.3.

The compound `COC1OC(CO)C(O)C(O)C1NC(=O)C(C)NC(=O)N(CCCl)N=O` (stereo not drawn) displayed a log partition coefficient (logP) of -0.76.

`CC(NC(=O)N(CCCl)N=O)C(=O)NC1C(O)OC(CO)C(O)C1O` (stereo not drawn): the logP is -1.02.

`CC(=O)OC[C@H]1O[C@@H](OC(C)=O)[C@H](NC(=O)CNC(=O)N(CCCl)N=O)[C@@H](OC(C)=O)[C@@H]1OC(C)=O` registered a logP of 0.61.

Test in a further data set: not given
Details: not given
The source holds these as a separate data set.
`NS(=O)(=O)c1cc(C(=O)O)cc(N2CCCC2)c1Oc1ccccc1` showed a lipophilicity (logP) of 3.27.

On to `NS(=O)(=O)c1ccc([N+](=O)[O-])cc1[N+](=O)[O-]`, for which the logP amounted to 0.3.

In the case of `NS(=O)(=O)c1cc(Cl)ccc1Cl`, the logP turned out to be 1.65.

Regarding `NS(=O)(=O)c1ccc([N+](=O)[O-])cc1`, the lipophilicity (logP) amounted to 0.58.

`NS(=O)(=O)c1ccccc1[N+](=O)[O-]` displayed a logP of 0.4.

In the case of `CC(C)CN[C@H]1CCS(=O)(=O)c2sc(S(N)(=O)=O)cc21`, the log partition coefficient (logP) is -0.03.

For the compound `CN(C)c1cccc2c(S(N)(=O)=O)cccc12`, the lipophilicity (logP) came out at 1.83.

A short description of another data set: method code SF-HPLC, from DOI: 10.1248/cpb.43.1894.
Details: not given
With `CSC(=S)C1=C(SC)CCCC1`, the logP amounted to 3.81.

`CSC(=S)c1ccccc1SC` gave a logP of 3.74.

With `CSC(=S)C(C)(C)C(C)=O`, the logP amounted to 2.8.

`CSC(=S)C(C)(C)C(=O)c1ccccc1`: the logP was 3.9.

With `CC(C)C(=O)c1ccccc1`, the logP amounted to 2.59.

With `S=C1CCCC1=C1SCCS1`, the logP came out at 3.12.

`CSC1=CCCCC1` displayed a logP of 3.3.

The nature of the next data set: method code SF-AS, from DOI: 10.2307/3577276, PMID: 2913608.
Details: not given
`CC(=O)Nc1ccccc1NS(=O)(=O)c1[nH]cnc1[N+](=O)[O-]` showed a logP of -0.06.

Turning to `Cn1cnc([N+](=O)[O-])c1S(N)(=O)=O`, the logP is -0.74.

For `CC(C)(C)c1ccc(NS(=O)(=O)c2[nH]cnc2[N+](=O)[O-])cc1`, the logP was found to be 2.28.

Turning to `CCNS(=O)(=O)c1[nH]cnc1[N+](=O)[O-]`, the lipophilicity (logP) was -0.37.

Turning to `CC(=O)Nc1cccc(NS(=O)(=O)c2[nH]cnc2[N+](=O)[O-])c1`, the logP turned out to be 0.2.

Take `O=[N+]([O-])c1nc[nH]c1S(=O)(=O)NC1CCCCC1`: the logP came out at 1.38.
